“Also recorded” adds a separate entry of the source.
What was measured:
HepG2 cells = assay: Cell viability in HepG2 cells under SRE-luc conditions; assay type: cell-based, human; conditions: conditions of SRE-luc measurements
Text: Figure 5. Lipogenic response of HepG2 cells to treatment with liver X receptor (LXR) ligands. […] See Figure 3—figure supplement 1 for biological replicates. […] See Figure 5—figure supplement 1 for full concentration-response curves. Figure 5—figure supplement 1. Response of HepG2 cells to treatment with liver X receptor (LXR) ligands. (A–B) Lipogenic response of HepG2 cells to treatment with liver X receptor (LXR) ligands showing full concentration-response curves for biphenyl compounds shown in Figure 5E–F. (C) Cell viability in HepG2 cells under identical conditions to those used to obtain sterol response element (SRE)-luc data. [drawing 5]

LXRα [1] = target: T1, LXRα (Homo sapiens, UniProt Q13133); assay: SRC-1 coactivator recruitment to LXRα, coregulator TR-FRET (CRT); assay type: biochemical; design: The CRT selectivity assay incorporates GST-tagged LXR-LBD; purchased Thermo Fisher Scientific PV4657; conditions: maximal response relative to T0 (100%)
T1 sequence (Q13133 209-447 limits assumed): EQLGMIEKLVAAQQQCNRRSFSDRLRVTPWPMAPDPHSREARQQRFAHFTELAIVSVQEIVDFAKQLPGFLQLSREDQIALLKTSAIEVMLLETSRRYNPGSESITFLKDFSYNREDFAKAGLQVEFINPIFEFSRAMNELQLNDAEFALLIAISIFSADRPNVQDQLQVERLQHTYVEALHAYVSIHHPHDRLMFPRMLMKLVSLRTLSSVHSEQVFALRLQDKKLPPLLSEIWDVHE

LXRβ [2] = target: T2, LXRβ (Homo sapiens, UniProt P55055); assay: SRC-1 coactivator recruitment to LXRβ, coregulator TR-FRET (CRT); assay type: biochemical; design: The CRT selectivity assay incorporates GST-tagged LXR-LBD; purchased Thermo Fisher Scientific PV4660; conditions: for LXR isoform selectivity from SRC-1 CRT: LXRβ versus LXRα
T2 sequence (P55055 222-460 limits assumed): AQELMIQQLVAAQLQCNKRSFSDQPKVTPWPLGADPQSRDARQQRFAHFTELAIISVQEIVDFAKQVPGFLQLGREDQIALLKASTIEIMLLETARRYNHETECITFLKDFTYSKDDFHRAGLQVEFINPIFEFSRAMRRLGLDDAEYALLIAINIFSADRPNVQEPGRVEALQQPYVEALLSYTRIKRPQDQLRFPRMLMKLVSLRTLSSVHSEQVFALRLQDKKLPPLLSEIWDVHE

[3] = test system: sterol response element (SRE); assay: SRE-luc reporter assay in HepG2 cells; assay type: cell-based, human
Text: Our phenotypic high-throughput screen (HTS) approach to identify nonlipogenic ABCA1 Inducers (NLAI) originally used counterscreening with a SREBP1c-luciferase reporter (linked to the SREBF1 gene promoter) in human hepatocarcinoma HepG2 cells ([Ben Aissa et al., 2021]). Unwanted lipogenesis is mediated by LXR agonists via direct transcriptional activation and indirectly by the effects of SREBP1c ([Schultz et al., 2000]; [Brown and Goldstein, 1997]). SREBP1c enhances transcription of genes required for synthesis of fatty acids and TG and as the dominant isoform in liver is associated most closely with lipogenesis and TG elevation ([Brown and Goldstein, 1997]). […] Binding of SREBP1c to the sterol response element (SRE) induces transcription of lipogenic genes associated with elevated TG. To better model the lipogenic axis in hepatocytes, we use HepG2 cells stably transfected with a nanoluciferase reporter downstream of a SRE promoter (SRE-luc), activation of which requires SREBP1c maturation.
HepG2 cells were cotransfected with SRE (LDLR)-NlucP SuperPiggyBac Transposon and a separate Transposase plasmid (System Biosciences). Cells were expanded for multiple passages followed by selection with puromycin (1 μg/ml). Stable cells constitutively express GFP allowed for FACS enrichment and/or cell cloning. Initially, stable pools were compared to low expressing and high expressing enriched pools. The optimal pool was selected based on assay performance (Z’) and was grown and maintained as above, with the addition of 1.0 μg/mL of puromycin biweekly.
Cells were split into flasks containing CS medium (EMEM supplemented with 10% charcoal stripped FBS (Gibco A52567-01)) and 1% P/S and grown at 37 °C /5% CO2 for 48 hr before plating. Cells were plated in 384-well, white clear tissue culture plates (Greiner 781098) and allowed to grow at 37 °C /5% CO2 for 24 hr before medium was aspirated and compound dilutions prepared in CS medium were added. Following a 24 hr incubation, the medium was aspirated, and cells were lysed/luminescence quantified using the Nano-Glo Luciferase Assay System (Promega N1130).

ABCA1 = assay: ABCA1-luc reporter assay in CCF-STTG1 astrocytoma cells; assay type: cell-based, human; conditions: for ABCA1 induction response/phenotype in CCF cells: normalized to T0
Text: Astrocytoma CCF-STTG1 cells, stably transfected with an ABCA1-promoter linked to a luciferase response element, provide a model for ABCA1 induction in astrocytes ([Ben Aissa et al., 2021]). […] Apparent inverse agonist activity in cell-based assays can result from ‘true’ inverse agonist recruitment of corepressors or from antagonist activity towards endogenous sterol LXR agonists. Although we use serum-stripped media, antagonism of endogenous LXR agonists cannot be ruled out.
Low passage CCF-STTG1 cells (20,000 cells/well) were seeded in 96-well plates in media containing charcoal-stripped FBS and incubated at 37 °C and 5% CO2 for 24 hr prior to a 24 hr treatment. All compounds were dissolved in DMSO, and final DMSO concentrations never exceeded 1%. After a 24 hr incubation period, add a volume of ONE-GLOEX Reagent that is equal to the volume of culture medium in each well and incubate for 3–5 min on the shaker. The luminescent activity of compounds ([…], 10-fold dilution) was examined using the ONE-GLOEX assay (Promega). […] The assays were performed in duplicates for each concentration, and the EC50 values were determined from non-linear regression analysis of the dose-response curve generated in GraphPad Prism 9.

LXR [4] = assay: Corepressor (NCOR2, SMRT2) binding to LXR, CRT, statements across isoforms; assay type: biochemical; conditions: monoplex CRT, absence of coactivator
LXRα [5] = target: T1, LXRα; assay: NCOR2 corepressor binding to LXRα, CRT; assay type: biochemical; design: The CRT selectivity assay incorporates GST-tagged LXR-LBD; purchased Thermo Fisher Scientific PV4657; conditions: for activity at 1 µM: ligand 1 µM, interpolated from concentration-response, normalized, heat map Figure 9A, read-out: NCOR2α, relative % activity at 1 μM
LXRβ [6] = target: T2, LXRβ; assay: NCOR2 corepressor binding to LXRβ, CRT; assay type: biochemical; design: The CRT selectivity assay incorporates GST-tagged LXR-LBD; purchased Thermo Fisher Scientific PV4660; conditions: for activity at 1 µM: ligand 1 µM, interpolated from concentration-response, normalized, heat map Figure 9A, read-out: NCOR2β, relative % activity at 1 μM
LXRα [7] = target: T1, LXRα; assay: SMRT2 corepressor binding to LXRα, CRT; assay type: biochemical; design: The CRT selectivity assay incorporates GST-tagged LXR-LBD; purchased Thermo Fisher Scientific PV4657; conditions: ligand 1 µM, interpolated from concentration-response, normalized; heat map Figure 9A; read-out: SMRT2α, relative % activity at 1 μM
LXRβ [8] = target: T2, LXRβ; assay: SMRT2 corepressor binding to LXRβ, CRT; assay type: biochemical; design: The CRT selectivity assay incorporates GST-tagged LXR-LBD; purchased Thermo Fisher Scientific PV4660; conditions: ligand 1 µM, interpolated from concentration-response, normalized; heat map Figure 9A; read-out: SMRT2β, relative % activity at 1 μM
LXR [9] = assay: Categorization of ligands by CRT/pCRT signature; assay type: biochemical; conditions: response at 1 µM ligand compared with theoretical signatures
Text: With the knowledge that, in pCRT, corepressors bind to the apo-receptor; whereas coactivator binding requires a ligand-induced conformational change, we can categorize all ligands using their CRT profiles. Ligands induce three LXR conformational ensembles with CoR (destabilizing D, stabilizing S, neutral N) and only two conformations with CoA (stabilizing S, neutral N) (Figure 9 (Table 1)). In categorizing ligands based upon these CRT characteristics, labels are needed.
The category for each ligand is not always identical for LXRα vs. LXRβ. Similarly, the phenotype associated with each classification is isoform dependent. Recruitment of CoA to LXRβ by FA, WA, and PA will activate transcription; whereas, lack of recruitment by SA, HA, and RA will antagonize transcription (Figure 9 (Table 1)). Stabilization of CoA and/or destabilization of CoR bound to LXRα is a derepression mechanism leading to activation/transcription for FA, WA, and RA; whereas partial activation is expected for PA.
To determine which LXR ligands fit with these theoretical CRT signatures, concentration-response curves were interpolated to measure normalized response at 1 µM ligand concentration and plotted as a heat map (Figure 9A).

[10] = test system: Tg2576 familial Alzheimer’s disease (FAD) mice; design: method as in Stachel et al., 2016; conditions: subcutaneous, 3 weeks, 50 mg/kg/day; ref Stachel et al., 2016; cited from earlier work
monkeys = test system: monkeys; design: method as in Stachel et al., 2016; conditions: 20 mg/kg qd p.o., 2 weeks, ref Stachel et al., 2016, cited from earlier work
Hamsters = test system: Hamsters; design: method as in Groot et al., 2005; conditions: ref Groot et al., 2005; cited from earlier work
cynomolgus monkeys = test system: cynomolgus monkeys; design: method as in Groot et al., 2005; conditions: ref Groot et al., 2005; cited from earlier work

For `CC(C)C(O)CC[C@@H](C)[C@H]1CC[C@H]2[C@@H]3CC=C4C[C@@H](O)CC[C@]4(C)[C@H]3CC[C@]12C` (stereo partly drawn) [24HC, 24-hydroxycholesterol], the HepG2 cell viability/cytotoxicity (HepG2 cells) was “cytotoxic at higher concentrations”, the “Efficacy profile for SRC-1 recruitment to LXRα” value (LXRα [1]) was “partial agonist” and the “LXR isoform selectivity from SRC-1 CRT” value (LXRβ [2]) was “nonselective”. The “Efficacy profile for SRC-1 recruitment to LXRβ” value (LXRβ [2]; maximal response relative to T0 (100%)) was “partial agonist”.

With `CCOC(=O)Cn1nc(C(F)(F)F)cc1-c1ccc(-c2cccc(S(C)(=O)=O)c2)cc1` [ALX101] the “SRE activation response/phenotype in HepG2” value [3] was “partial agonist of SRE activation”, the “ABCA1 induction response/phenotype in CCF cells” value (ABCA1) was “full agonist towards ABCA1 induction” and the “Corepressor (NCOR2, SMRT2) displacement or stabilization, across LXR isoforms” value (“Corepressor” below) (LXR [4]) was “less effective or ineffective in displacement of corepressors from LXRα”. The activity at 1 µM (LXRα [5]) was 100%, the activity at 1 µM (LXRβ [6]) was 105% and the activity at 1 µM (LXRα [7]) was 87.3%. For the same molecule, the activity at 1 µM (LXRβ [8]) was 91.1%.

For `Cc1cc(C)c(S(=O)(=O)N(Cc2ccc(-c3cccc(S(C)(=O)=O)c3)cc2)Cc2ccccc2F)c(C)c1` [BE1218], the “SRE activation response/phenotype in HepG2” value [3] was “partial agonist phenotype in both cell-based assays”, the “Selectivity for ABCA1 induction versus SRE activation (potency correlation outliers)” value (ABCA1; CCF ABCA1-luc versus HepG2 SRE-luc) was “selectivity for ABCA1 induction” and the “ABCA1 induction response/phenotype in CCF cells” value (ABCA1) was “partial agonist phenotype in both cell-based assays; also recorded: partial agonist response”. For the same molecule, the “Corepressor” value (LXR [4]) was “ineffective in corepressor displacement from LXRα”, the “LXR isoform selectivity from SRC-1 CRT” value (LXRβ [2]) was “most selective LXRβ agonists” and the activity at 1 µM (LXRα [5]) was 100%. The activity at 1 µM (LXRβ [6]) was 105%, the activity at 1 µM (LXRα [7]) was 91.8% and the activity at 1 µM (LXRβ [8]) was 81.6%.

With `COc1ccc(NC2=C(c3ccccc3)C(=O)N(Cc3ccccc3)C2=O)cc1` [GSK3987] the “Corepressor” value (LXR [4]) was “strong agonist responses”, the CRT/pCRT signature category (LXR [9]) was “FA (full agonist (FA))” and the “LXR isoform selectivity from SRC-1 CRT” value (LXRβ [2]) was “weakly selective for LXRβ”. It also gave an activity at 1 µM (LXRα [5]) of 97.7%, an activity at 1 µM (LXRβ [6]) of 97.4% and an activity at 1 µM (LXRα [7]) of 69.9%. The activity at 1 µM (LXRβ [8]) was 84%.

For `CC(C)[C@@](O)(C(=O)N1CCC(C2CCN(c3ccc(C(=O)N(C)C)c(Cl)c3)CC2)CC1)C(F)(F)F` [MK9, (R)–2-chloro-4-(1'-(2-hydroxy-3-methyl-2-(trifluoromethyl)butanoyl)-[4,4'-bipiperidin]–1-yl)-N,N-dimethylbenzamide], the “SRE activation response/phenotype in HepG2” value [3] is listed as “activates lipogenesis in HepG2 cells”, the “Corepressor” value (LXR [4]) is listed as “less effective or ineffective in displacement of corepressors from LXRα” and the “ABCA1 and apoE protein levels in the brain” value [10] is listed as “Significant increases in ABCA1 and apoE protein levels in the brain”. For the same molecule, the “Plasma or liver TG” value [10] was “not accompanied by significant changes in plasma or liver TG”, the Liver fat content (monkeys; relative to control) was “no change in liver fat content” and the “Increase in APOE and Aβ in cerebrospinal fluid (CSF)” value (monkeys) was “threefold”. For the same molecule, the “LXR isoform selectivity from SRC-1 CRT” value (LXRβ [2]) was “highly LXRβ-selective; also recorded: most selective LXRβ agonists”, the activity at 1 µM (LXRα [5]) was 95.1% and the activity at 1 µM (LXRβ [6]) was 103%. It also gave an activity at 1 µM (LXRα [7]) of 87.9% and an activity at 1 µM (LXRβ [8]) of 87.9%.

In the case of `C[C@H](CCOc1cccc(CC(=O)O)c1)N(Cc1cccc(C(F)(F)F)c1Cl)CC(c1ccccc1)c1ccccc1` [RGX-104], the “Corepressor” value (LXR [4]) is listed as “strong agonist responses”, the “Liver TG” value (Hamsters) is listed as “significantly increased liver TG” and the “Plasma TG, LDL-C and VLDL-C” value (Hamsters) is listed as “dose-dependent increase”. The “Plasma LDL, HDL and TG” value (cynomolgus monkeys) was “robust time-dependent increase in TG and LDL”, the activity at 1 µM (LXRα [5]) was 99.8% and the “Effect on NCOR2 binding to LXRα” value (LXRα [5]; monoplex CRT, absence of SRC1) was “displacement of NCOR2 from both LXR isoforms”. The activity at 1 µM (LXRβ [6]) was 103%, the “Effect on NCOR2 binding to LXRβ” value (LXRβ [6]; monoplex CRT, absence of SRC1) was “displacement of NCOR2 from both LXR isoforms” and the activity at 1 µM (LXRα [7]) was 93.4%. The activity at 1 µM (LXRβ [8]) was 82%.

Source: paper PMC13286573, “Exploration of precision coregulator TR-FRET identifies diverse signatures for LXR ligands relevant to discovery of nonlipogenic ABCA1 inducers” (eLife, 2026)
